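Values below derive from 48-hour exposures of cells grown in 96-well plates, with endpoints linearly interpolated between the two concentrations bracketing the appropriate inhibition level. GI50 marks 50% less growth. Definition used: TGI = concentration required for complete inhibition of growth.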
Experiments:
Test in all cases: NCI anticancer screen, dose series, 48 h
786-0 renal = system: 786-0 renal
A498 renal = system: A498 renal
A549 NSCLC = system: A549 NSCLC
ACHN renal = system: ACHN renal
BT-549 breast = system: BT-549 breast
CCRF-CEM leukemia = system: CCRF-CEM leukemia
COLO 205 colon = system: COLO 205 colon
DU-145 prostate = system: DU-145 prostate
EKVX NSCLC = system: EKVX NSCLC
HCC-2998 colon = system: HCC-2998 colon
HCT-116 colon = system: HCT-116 colon
HCT-15 colon = system: HCT-15 colon
HL-60(TB) leukemia = system: HL-60(TB) leukemia
HOP-62 NSCLC = system: HOP-62 NSCLC
HOP-92 NSCLC = system: HOP-92 NSCLC
HS 578T breast = system: HS 578T breast
HT29 colon = system: HT29 colon
IGROV1 ovarian = system: IGROV1 ovarian
K-562 leukemia = system: K-562 leukemia
KM12 colon = system: KM12 colon
LOX IMVI melanoma = system: LOX IMVI melanoma
M14 melanoma = system: M14 melanoma
MALME-3M melanoma = system: MALME-3M melanoma
MCF7 breast = system: MCF7 breast
MDA-MB-231 breast = system: MDA-MB-231 breast
MDA-MB-435 = system: MDA-MB-435
MOLT-4 leukemia = system: MOLT-4 leukemia
NCI-H226 lung = system: NCI-H226 lung
NCI-H23 lung = system: NCI-H23 lung
NCI-H460 lung = system: NCI-H460 lung
NCI-H522 lung = system: NCI-H522 lung
NCI/ADR-RES ovarian = system: NCI/ADR-RES ovarian
OVCAR-3 ovarian = system: OVCAR-3 ovarian
OVCAR-4 ovarian = system: OVCAR-4 ovarian
OVCAR-5 ovarian = system: OVCAR-5 ovarian
OVCAR-8 ovarian = system: OVCAR-8 ovarian
PC-3 prostate = system: PC-3 prostate
RPMI-8226 leukemia = system: RPMI-8226 leukemia
RXF 393 renal = system: RXF 393 renal
SF-268 CNS = system: SF-268 CNS
SF-295 CNS = system: SF-295 CNS
SF-539 CNS = system: SF-539 CNS
SK-MEL-2 melanoma = system: SK-MEL-2 melanoma
SK-MEL-28 melanoma = system: SK-MEL-28 melanoma
SK-MEL-5 melanoma = system: SK-MEL-5 melanoma
SK-OV-3 ovarian = system: SK-OV-3 ovarian
SN12C renal = system: SN12C renal
SNB-19 CNS = system: SNB-19 CNS
SNB-75 CNS = system: SNB-75 CNS
SR leukemia = system: SR leukemia
SW-620 colon = system: SW-620 colon
T-47D breast = system: T-47D breast
TK-10 renal = system: TK-10 renal
U251 CNS = system: U251 CNS
UACC-62 melanoma = system: UACC-62 melanoma
UO-31 renal = system: UO-31 renal
CAKI-1 renal = system: CAKI-1 renal
UACC-257 melanoma = system: UACC-257 melanoma

NCC(=O)NS(=O)(=O)OC[C@H]1O[C@@H](n2cnc3c(N)ncnc32)[C@H](O)[C@@H]1O
GI50 (786-0 renal): 1.77 µM
TGI (786-0 renal): 3.47 µM
GI50 (A498 renal): 1.6 µM
TGI (A498 renal): 3.21 µM
GI50 (A549 NSCLC): 2.32 µM
TGI (A549 NSCLC): 5.27 µM
GI50 (ACHN renal): 2.89 µM
TGI (ACHN renal): 8.37 µM
GI50 (BT-549 breast): 2.34 µM
TGI (BT-549 breast): 5.56 µM
GI50 (CCRF-CEM leukemia): 3.71 µM
TGI (CCRF-CEM leukemia): > 100 µM
GI50 (COLO 205 colon): 2.27 µM
TGI (COLO 205 colon): 6.14 µM
GI50 (DU-145 prostate): 0.699 µM
TGI (DU-145 prostate): 5.61 µM
GI50 (EKVX NSCLC): 2.58 µM
TGI (EKVX NSCLC): 8.88 µM
GI50 (HCC-2998 colon): 2.04 µM
TGI (HCC-2998 colon): 4.34 µM
GI50 (HCT-116 colon): 3.14 µM
TGI (HCT-116 colon): 9.19 µM
GI50 (HCT-15 colon): 2.92 µM
TGI (HCT-15 colon): 10.1 µM
GI50 (HL-60(TB) leukemia): 2.78 µM
TGI (HL-60(TB) leukemia): 6.95 µM
GI50 (HOP-62 NSCLC): 0.368 µM
TGI (HOP-62 NSCLC): 1.68 µM
GI50 (HOP-92 NSCLC): 2.97 µM
TGI (HOP-92 NSCLC): 6.78 µM
GI50 (HS 578T breast): 2.89 µM
TGI (HS 578T breast): 9.13 µM
GI50 (HT29 colon): 2.92 µM
TGI (HT29 colon): 7.46 µM
GI50 (IGROV1 ovarian): 3.04 µM
TGI (IGROV1 ovarian): 7.68 µM
GI50 (K-562 leukemia): 3.71 µM
TGI (K-562 leukemia): 11.8 µM
GI50 (KM12 colon): 3.22 µM
TGI (KM12 colon): 14.4 µM
GI50 (LOX IMVI melanoma): 1.68 µM
TGI (LOX IMVI melanoma): 3.52 µM
GI50 (M14 melanoma): 1.81 µM
TGI (M14 melanoma): 3.61 µM
GI50 (MALME-3M melanoma): 1.92 µM
TGI (MALME-3M melanoma): 3.87 µM
GI50 (MCF7 breast): 2.85 µM
TGI (MCF7 breast): 18.7 µM
GI50 (MDA-MB-231 breast): 0.526 µM
TGI (MDA-MB-231 breast): 2.62 µM
GI50 (MDA-MB-435): 1.84 µM
TGI (MDA-MB-435): 3.49 µM
GI50 (MOLT-4 leukemia): 2.62 µM
TGI (MOLT-4 leukemia): 8.86 µM
GI50 (NCI-H226 lung): 2 µM
TGI (NCI-H226 lung): 3.77 µM
GI50 (NCI-H23 lung): 2.56 µM
TGI (NCI-H23 lung): 7.04 µM
GI50 (NCI-H460 lung): 3.23 µM
TGI (NCI-H460 lung): 10.1 µM
GI50 (NCI-H522 lung): 1.75 µM
TGI (NCI-H522 lung): 3.85 µM
GI50 (NCI/ADR-RES ovarian): 2.53 µM
TGI (NCI/ADR-RES ovarian): 9.67 µM
GI50 (OVCAR-3 ovarian): 2.01 µM
TGI (OVCAR-3 ovarian): 4.48 µM
GI50 (OVCAR-4 ovarian): 0.388 µM
TGI (OVCAR-4 ovarian): 2.45 µM
GI50 (OVCAR-5 ovarian): 0.75 µM
TGI (OVCAR-5 ovarian): 4.1 µM
GI50 (OVCAR-8 ovarian): 2.48 µM
TGI (OVCAR-8 ovarian): 7.59 µM
GI50 (PC-3 prostate): 2.66 µM
TGI (PC-3 prostate): 6.47 µM
GI50 (RPMI-8226 leukemia): 3.29 µM
TGI (RPMI-8226 leukemia): 10.1 µM
GI50 (RXF 393 renal): 2.11 µM
TGI (RXF 393 renal): 4.2 µM
GI50 (SF-268 CNS): 0.503 µM
TGI (SF-268 CNS): 5.65 µM
GI50 (SF-295 CNS): 0.861 µM
TGI (SF-295 CNS): 2.56 µM
GI50 (SF-539 CNS): 1.43 µM
TGI (SF-539 CNS): 3.58 µM
GI50 (SK-MEL-2 melanoma): 2.22 µM
TGI (SK-MEL-2 melanoma): 4.69 µM
GI50 (SK-MEL-28 melanoma): 1.93 µM
TGI (SK-MEL-28 melanoma): 4.14 µM
GI50 (SK-MEL-5 melanoma): 1.85 µM
TGI (SK-MEL-5 melanoma): 3.34 µM
GI50 (SK-OV-3 ovarian): 2.87 µM
TGI (SK-OV-3 ovarian): 7.94 µM
GI50 (SN12C renal): 0.563 µM
TGI (SN12C renal): 4.6 µM
GI50 (SNB-19 CNS): 0.378 µM
TGI (SNB-19 CNS): 1.48 µM
GI50 (SNB-75 CNS): 1.14 µM
TGI (SNB-75 CNS): 3.32 µM
GI50 (SR leukemia): 0.936 µM
TGI (SR leukemia): > 100 µM
GI50 (SW-620 colon): 3.71 µM
TGI (SW-620 colon): 24.6 µM
GI50 (T-47D breast): 2.32 µM
TGI (T-47D breast): 9.21 µM
GI50 (TK-10 renal): 2.75 µM
TGI (TK-10 renal): 5.78 µM
GI50 (U251 CNS): 0.555 µM
TGI (U251 CNS): 1.98 µM
GI50 (UACC-62 melanoma): 1.85 µM
TGI (UACC-62 melanoma): 3.78 µM
GI50 (UO-31 renal): 1.71 µM
TGI (UO-31 renal): 3.25 µM

COc1cc2c3c(n(C)c(=O)c2cc1OC)-c1cc2c(cc1/C3=C\CCCN1C(=O)c3ccccc3C1=O)OCO2
GI50 (786-0 renal): > 40 µM
TGI (786-0 renal): > 40 µM
GI50 (A498 renal): > 40 µM
TGI (A498 renal): > 40 µM
GI50 (A549 NSCLC): 22 µM
TGI (A549 NSCLC): > 40 µM
GI50 (ACHN renal): 8.67 µM
TGI (ACHN renal): > 40 µM
GI50 (BT-549 breast): 8.26 µM
TGI (BT-549 breast): > 40 µM
GI50 (CAKI-1 renal): 5.44 µM
TGI (CAKI-1 renal): > 40 µM
GI50 (COLO 205 colon): > 40 µM
TGI (COLO 205 colon): > 40 µM
GI50 (DU-145 prostate): 6.73 µM
TGI (DU-145 prostate): > 40 µM
GI50 (EKVX NSCLC): 5.2 µM
TGI (EKVX NSCLC): > 40 µM
GI50 (HCT-116 colon): 26.2 µM
TGI (HCT-116 colon): > 40 µM
GI50 (HCT-15 colon): > 40 µM
TGI (HCT-15 colon): > 40 µM
GI50 (HOP-62 NSCLC): 19.2 µM
TGI (HOP-62 NSCLC): > 40 µM
GI50 (HOP-92 NSCLC): 2.12 µM
TGI (HOP-92 NSCLC): 13.4 µM
GI50 (HS 578T breast): > 40 µM
TGI (HS 578T breast): > 40 µM
GI50 (HT29 colon): > 40 µM
TGI (HT29 colon): > 40 µM
GI50 (K-562 leukemia): 15 µM
TGI (K-562 leukemia): > 40 µM
GI50 (KM12 colon): 5.1 µM
TGI (KM12 colon): > 40 µM
GI50 (LOX IMVI melanoma): 20.8 µM
TGI (LOX IMVI melanoma): > 40 µM
GI50 (M14 melanoma): > 40 µM
TGI (M14 melanoma): > 40 µM
GI50 (MALME-3M melanoma): > 40 µM
TGI (MALME-3M melanoma): > 40 µM
GI50 (MCF7 breast): 6.94 µM
TGI (MCF7 breast): > 40 µM
GI50 (MDA-MB-435): > 40 µM
TGI (MDA-MB-435): > 40 µM
GI50 (MOLT-4 leukemia): 1.18 µM
TGI (MOLT-4 leukemia): 5.17 µM
GI50 (NCI-H23 lung): > 40 µM
TGI (NCI-H23 lung): > 40 µM
GI50 (NCI-H460 lung): 4.76 µM
TGI (NCI-H460 lung): > 40 µM
GI50 (NCI/ADR-RES ovarian): > 40 µM
TGI (NCI/ADR-RES ovarian): > 40 µM
GI50 (OVCAR-3 ovarian): > 40 µM
TGI (OVCAR-3 ovarian): > 40 µM
GI50 (OVCAR-4 ovarian): > 40 µM
TGI (OVCAR-4 ovarian): > 40 µM
GI50 (OVCAR-5 ovarian): > 40 µM
TGI (OVCAR-5 ovarian): > 40 µM
GI50 (OVCAR-8 ovarian): 23.8 µM
TGI (OVCAR-8 ovarian): > 40 µM
GI50 (PC-3 prostate): 4.79 µM
TGI (PC-3 prostate): 24.7 µM
GI50 (RXF 393 renal): > 40 µM
TGI (RXF 393 renal): > 40 µM
GI50 (SF-268 CNS): 14.2 µM
TGI (SF-268 CNS): > 40 µM
GI50 (SF-295 CNS): 3.61 µM
TGI (SF-295 CNS): > 40 µM
GI50 (SF-539 CNS): 8.99 µM
TGI (SF-539 CNS): > 40 µM
GI50 (SK-MEL-28 melanoma): > 40 µM
TGI (SK-MEL-28 melanoma): > 40 µM
GI50 (SK-MEL-5 melanoma): 21.7 µM
TGI (SK-MEL-5 melanoma): > 40 µM
GI50 (SK-OV-3 ovarian): > 40 µM
TGI (SK-OV-3 ovarian): > 40 µM
GI50 (SNB-19 CNS): > 40 µM
TGI (SNB-19 CNS): > 40 µM
GI50 (SNB-75 CNS): 27.8 µM
TGI (SNB-75 CNS): > 40 µM
GI50 (SW-620 colon): 13.5 µM
TGI (SW-620 colon): > 40 µM
GI50 (T-47D breast): > 40 µM
TGI (T-47D breast): > 40 µM
GI50 (TK-10 renal): > 40 µM
TGI (TK-10 renal): > 40 µM
GI50 (U251 CNS): 12.8 µM
TGI (U251 CNS): > 40 µM
GI50 (UACC-257 melanoma): > 40 µM
TGI (UACC-257 melanoma): > 40 µM
